These results are taken from patent US10039806B2, “Methods and compositions for treating antiprogestin-resistant cancers” (Fundación Sales, priority 2011, dated 2018).

Assay [1] has as its system primary cultures of responsive tumors. As to the kind of experiment: Primary cultures of responsive tumors of the MPA model. In kind it is cell-based, mouse.
Assay [2] relates to prostate and ovarian cancer xenografts. The settings on record: 50 mg/kg/day; cited from earlier work.
Another assay concerns IBH-6-PRA tumors. As to the kind of experiment: Xenograft in nude mice. Format: in vivo, human. The source says:
(§1) BH-6 cell line was developed from an invasive ductal breast carcinoma (1). IBH-6 cells express basal levels of hormone receptors, they are tumorigenic and in vivo express higher levels of PRB than PRA (2). Cells were transfected with human PRB, PRA (pSG5-PRB, pSG5-PRA, kindly provided by K. Horwitz) or with the empty vector (pSG5), together with a plasmid encoding the neomycin resistance gene pIRES-N1(3), using Lipofectamine transfection reagent (Invitrogen) following the manufacturer's instructions. Transfected and selected cells were cultured in medium supplemented with […] G418 (neomycin analogue, GIBCO). The expression of PRB and PRA were analyzed by western blot and immunofluorescence (using Ab7 and Ab6 antibodies from Thermo Fisher). T47D-YA or YB were kindly provided by K. Horwitz and cultured as previously described (4).
Transfected and selected cells were grown up to confluence, washed with PBS, detached with 0.25% trypsin, centrifuged at 1000 rpm for 10 min and resuspended in a final concentration of 10^6 (IBH-6) or 5×10^6 (T47D) cells per 100 μl of culture medium. The cells were sc inoculated into the right flank of nu/nu (IBH-6) or NOD/LtSz-scid/IL-2Rgamma null (T47D-YA or -YB cells) female mice. Only in experiments involving T47D cells E2 silastic pellets (0.5 mg) were implanted sc into the back of the animals one week prior tumor cell inoculation and 70 μl of Matrigel were mixed with the cell suspension at the moment of injection. MFP (6 mg) silastic pellets were sc implanted when tumors reached 20-40 mm^2. For T47D cells, experiments were repeated inoculating both cell types (T47D-YA or -YB) simultaneously in the left or right flank of the mouse, respectively.
Cytosolic or nuclear extracts were processed for western blots as described previously (5). The cells were lysed using Mammalian Protein Extraction Reagent (Pierce, Rockford, Ill.) according to the manufacturer's instructions. […] The band intensities from 3-4 different samples in different western blots were quantified using Image Quant software.
(In general: A xenograft is tissue or cells of one species grown in another, often human tumour cells in immunodeficient mice.)

For assay [3], the system named is C4-HI or C4-HIR epithelial cells with carcinoma-associated fibroblasts. As to the kind of experiment: (3H)-thymidine uptake, co-cultures with carcinoma-associated fibroblasts. In kind it is cell-based, mouse. Particulars: own or other tumor's fibroblasts. The method, then: Trypsinized cells were resuspended and equal amounts of epithelial cells and carcinoma-associated fibroblasts were seeded with 10% FCS that was replaced after attachment by 1% steroid-stripped FCS. […] The same amount of epithelial cells or carcinoma-associated fibroblasts or double the amount of purified cells was used for comparison.
(§2) (3H)-thymidine-uptake was used as an indirect method to evaluate cell proliferation. In brief, cells were seeded into 96-well microplates. After attachment (24 h), the cells were incubated for 24 h with 1% steroid-stripped FCS and then for 48 h with the experimental solutions to be tested in 1% chFCS. Fifty percent of the medium was replaced with fresh medium every 24 h. The cells were incubated with 0.4 μCi of 3H-thymidine (specific activity: 20 Ci/mmol) for 24 h, trypsinized, and harvested in a cell harvester. In experiments in which 5azadC was used, the experiments were carried out using proliferating cells (presence of 10% FCS) to guarantee the effect of the demethylating agent. Three different experiments were made using octuplicates, and the means and standard deviations of one representative experiment of the other three are shown. The results are expressed as the proliferation index (cpm […] experimental group/cpm control; mean±SEM).

In assay [4] the test system is thymic, renal pelvis, colon, pancreatic carcinomas, leiomyosarcoma, histiocytoma. The settings on record: 200 mg/day; cited from earlier work.
Assay [5] deals with primary cultures of responsive tumors. The settings on record: cited from earlier work.
The next assay deals with T47D-YB cells. Particulars: 100 nM; cited from earlier work.
Another assay concerns meningiomas. The settings on record: 200 mg/day for 2-31 months; after one year; cited from earlier work.
The next assay relates to MCF-7 xenografts. Particulars: MIF 50 mg/kg/day, ONA 30 mg/kg/day, 17 days; cited from earlier work.
The subject of assay [6] is BT-474 and T47D xenografts. The settings on record: 25 mg; mice treated with E2 followed by MPA; cited from earlier work.
For the next assay, the system named is C4-HI cells. The experiment in a line: (3H)-thymidine uptake, primary cultures of purified epithelial cells. In kind it is cell-based, mouse. Particulars: 48 h, with MPA; P<0.001. Here is the method:
(§3) Epithelial cells and carcinoma-associated fibroblasts were separated by differential sedimentation and plated with 10% FCS. Carcinoma-associated fibroblasts were allowed to attach for 0.5 h and the epithelial cells for 24-48 h. The medium was replaced by fresh medium with 10% FCS; thereafter, it was changed every 2-3 days.
as §2

The next assay has as its system C4-HIR cells. The description is as above. In kind it is cell-based, mouse. The settings on record: 48 h, with MPA; P<0.001. The method, then:
as §3, §2

A further assay has as its system IBH-6-pSG5 tumors. The experiment in a line: Xenograft in nude mice. Format: in vivo, human. Particulars: MFP 10 mg/kg/day; p<0.001.
Description: as §1
Transfected and selected cells were grown up to confluence, washed with PBS, detached with 0.25% trypsin, centrifuged at 1000 rpm for 10 min and resuspended in a final concentration of 10^6 (IBH-6) or 5×10^6 (T47D) cells per 100 μl of culture medium. The cells were sc inoculated into the right flank of nu/nu (IBH-6) or NOD/LtSz-scid/IL-2Rgamma null (T47D-YA or -YB cells) female mice. […]

The subject of another assay is C4-HI. The settings on record: concentrations lower than growth inhibitory ones; cited from earlier work.
The subject of assay [7] is MXT mouse model of breast cancer. Particulars: 1 or 10 mg/kg/day from one day post-transplantation; cited from earlier work.

For `CC#C[C@]1(O)CC[C@H]2[C@@H]3CCC4=CC(=O)CCC4=C3[C@@H](c3ccc(N(C)C)cc3)C[C@@]21C` [RU-486, mifepristone], in [1], the ERK phosphorylation entry is reported as “increased ERK phosphorylation”. Besides, the xenograft growth entry in assay [2] is given as “inhibitory”. The in vivo growth result is given as “inhibited” with IBH-6-PRA tumors (MFP 6 mg pellet, p<0.05) and “stimulated” with IBH-6-pSG5 tumors. The “expression of MYC” value with IBH-6-PRA tumors (western blot, p<0.01) was “significantly inhibited”. Moreover, the “expression of CCND1” value in the assay on IBH-6-PRA tumors (western blot, p<0.05) is listed as “significantly inhibited”. The co-culture cell proliferation result in [3] is “inhibited”. The clinical outcome in assay [4] was “Improvements and pain relief were observed in all patients”. Moreover, the “MPA-induced or FGF2-induced cell proliferation” value in assay [5] (1-100 nM) was “inhibited MPA-induced or FGF2-induced cell proliferation”. Besides, in [5] (10-12 M), the “cell proliferation at very low concentrations” value is given as “stimulate cell proliferation”. The cell proliferation entry in the assay on T47D-YB cells is recorded as “increased cell proliferation”. In addition, the tumor response result with meningiomas was “Five out of thirteen tumors responded”. The “E2-induced proliferation of xenografts” value with MCF-7 xenografts is given as “inhibited”. The growth of xenografts entry in assay [6] is “prevent the growth”. The MPA-induced proliferative effect entry in the assay on C4-HI cells and with C4-HIR cells was “abolished” in each case. For the same compound, the “tumor growth at low doses” value with C4-HI was “stimulated C4-HI growth”. Also, the “tumor take and stimulatory effects of E2 and MPA” value in assay [7] is “inhibited both tumor take and the stimulatory effects of E2 and MPA”.
